Here are results for one molecule from PMC5342071, “A first generation inhibitor of human Greatwall kinase, enabled by structural and functional characterisation of a minimal kinase domain construct” (Oncotarget, 2016).

For data set [1], the system named is HeLa cells. The data set can be described thus: Time-lapse video microscopy of HeLa cells. The format is cell-based, human. How it is done:
Figure 5 In cellulo efficacy of GKI-1 in HeLa cells A. HeLa cells were transfected with either non-targeting (siSCR) or GWL targeting siRNAs (siGWL). GWL and loading control protein (Tubulin) were detected by western analysis. B., C. HeLa cells treated with siSCR or siGWL (48-h) were arrested in mitosis using nocodazole and treated with DMSO, 25 μM or 50 μM GKI-1. Immunofluorescent staining of p-ENSA (Red) and GWL (Green) was achieved using anti-phospho(Ser67)-ENSA and anti-MASTL(GWL, RIPLY 74C) antibodies and DAPI was used to stain the nucleus (Blue). (C) Quantitation of the IF p-ENSA and GWL signals was performed using the ScanR High-Content Screening Station. The Circularity and Total DAPI parameters were used to identify mitotic cells. D., E. HeLa cells treated with siSCR or siGWL (48-h) were treated with DMSO, 25 or 50 μM GKI-1. 4-h after treatment, μ-slides were mounted onto an Olympus IX73 microscope, within a temperature-controlled 37°C chamber maintained at 5% CO2, and images were acquired every 5-min for 8.5-h. Time-lapse videos were generated using ImageJ and cellular phenotypes recorded: Mitotic events (D), mitotic arrest (E, F) and failed cytokinesis G. F. Kymographs showing an example of typical phenotypes were generated by capturing images every 5 minutes for 80 minutes. Image sequences were chosen to start just before mitotic entry. (B - G) A total of 3 - 5 biological replicates were completed per condition and the t-test statistical module of Prism 6.0 was used to determine p-values (ns (not statistically significant): P > 0.05; *: P ≤ 0.05; **: P ≤ 0.01; ***: P ≤ 0.001).
HeLa cells were plated on glass coverslips and then transfected with siRNAs using Lipofectamine RNAiMax [ThermoFisher Scientific]. 48 hours after treatment, cells to be used for immunofluorescence were treated with nocodozole and DMSO, or GKI-1. After fixing and staining with antibodies, cells were visualised with a ScanR High Content Screening Station [Olympus Life Science]. Time-lapse videos for treated cells were recorded on an Olympus IX3 microscope fitted with an Ocra-Flash 4.0 CMOS camera [Hamatsu]. […]
Immunofluorescence and Time-lapse video microscopy
2.5 X 105 HeLa cells were plated onto glass coverslips in a 6-well plate, or 4-well µ-slides [Ibidi GmbH] were seeded with 5 X 104 cells and then transfected with Qiagen AllStars negative control or Hs_MASTL_6 siRNAs (14) using Lipofectamine RNAiMax [ThermoFisher Scientific]. Media was exchanged with fresh media the next day. 48 hours after siRNA treatment, only cells to be used for immunofluorescence (IF) were treated with nocodazole (200 ng/mL) and DMSO or GKI-1 at the indicated concentration. For IF, cells were fixed, stained with primary mouse anti-GWL and rabbit anti-p-ENSA antibodies, secondary Alexa Fluor 647-conjugated anti-rabbit and Alexa Fluor 488-conjugated anti-mouse antibodies, DAPI and mounted onto glass microscope slides using Diamond Antifade Mountant [Molecular Probes, ThermoFisher Scientific]. Quantitation of IF images was performed using the ScanR High-Content Screening Station [Olympus Life Science] which acquired 220, 40x images per cover slip. Data were normalised against the AllStars negative control siRNA treated cells and values obtained from three biological replicates were reported as the mean ± 1 S.D. To assist with selecting mitotic cells, ScanR imaging software was utilised to gate for mitotic cells using the circularity factor and total […]
To produce time-lapse videos, after 48 hours and cell treatment with DMSO or compound (cells were treated with GKI-1 for 4-h before image acquisition) cells plated in 4-well µ-slides were imaged every 5 minutes for 8.5 hours on an Olympus IX73 microscope, using a 40 x 0.95NA air objective, and recorded on an Orca-Flash 4.0 CMOS camera [Hamatsu]. The computer program Fiji (http://www.fiji.sc/Fiji) was used to generate videos from […]
image sequence TIF files. […]

The test system of data set [2] is 50 different protein kinases. The data set is described as follows: Kinase inhibition profiling against 50 protein kinases (University of Dundee). Conditions: 25 μM. The format is biochemical, human. How it is done: In order to gain a greater understanding of potential off-target interactions of GKI-1, we undertook more rigorous kinase inhibition profiling (International Centre for Kinase Profiling, University of Dundee) where GKI-1 was tested against 50 different protein kinases, carefully selected to provide representative sampling across the human kinome.
Figure S9. Kinase phylogeny vs GKI-1 inhibitory activity
Kinome render [Manning et al. (2002)] was used to generate a phylogenetic map with overlapping 25
µM GKI-1 inhibitory activity plotted against 50 kinases, carefully selected to represent the human
kinome. Illustration reproduced courtesy of Cell Signaling Technology, Inc. (www.cellsignal.com)
(1 picture or pasted object on this page, not shown here)

Data set [3] relates to HeLa cells. The data set can be described thus: Immunofluorescence of p-ENSA (Ser67) in nocodazole-arrested HeLa cells. The format is cell-based, human. The source says: To more directly address the presence of other off-target effects, and / or any level of compound toxicity, we conducted a more comprehensive phenotypic analysis of GKI-1 and GWL siRNA (siGWL, Figure 5A) treated cells by immunofluorescence (IF) and time-lapse video microscopy. Using an antibody that specifically detects phosphorylation of ENSA-Ser67 (p-ENSA), we established an IF assay in order to measure GWL kinase activity in HeLa cells. We treated the cells with nocodazole in order to arrest cells in mitosis, the cell cycle stage where GWL is maximally active (Figure 5B).
Figure 5 In cellulo efficacy of GKI-1 in HeLa cells A. HeLa cells were transfected with either non-targeting (siSCR) or GWL targeting siRNAs (siGWL). GWL and loading control protein (Tubulin) were detected by western analysis. B., C. HeLa cells treated with siSCR or siGWL (48-h) were arrested in mitosis using nocodazole and treated with DMSO, 25 μM or 50 μM GKI-1. […] (C) Quantitation of the IF p-ENSA and GWL signals was performed using the ScanR High-Content Screening Station. […] Time-lapse videos were generated using ImageJ and cellular phenotypes recorded: Mitotic events (D), mitotic arrest (E, F) and failed cytokinesis G. F. Kymographs showing an example of typical phenotypes were generated by capturing images every 5 minutes for 80 minutes. […]
HeLa cells were plated on glass coverslips and then transfected with siRNAs using Lipofectamine RNAiMax [ThermoFisher Scientific]. […] Time-lapse videos for treated cells were recorded on an Olympus IX3 microscope fitted with an Ocra-Flash 4.0 CMOS camera [Hamatsu]. […]
hGWLFL, 100 µl of lysate was diluted 5-fold with IP buffer and combined with 3 µl anti-Flag M2 magnetic Dynabeads [Sigma-Aldrich] overnight at 4 °C. […] The reaction was stopped by adding SDS loading buffer and analysed by western blot: p-ENSA and GWL levels were detected using the anti-phospho(Ser67)-ENSA and anti-MASTL(GWL, Prestige) antibodies. Activity was measured as the p-ENSA/GWL ratio and % kinase activity was normalised to the DMSO control. […]

As to `Clc1ccc(Nc2cccc(-c3cn[nH]c3)c2)cc1` [GKI-1, N-(4-chlorophenyl)-3-(1H-pyrazol-4-yl)aniline], in the data set with HeLa cells [1] (50 μM), the mitotic events entry is “effect comparable to siGWL treatment” and the “time remaining in prometaphase/metaphase” value is listed as “two to six”. Moreover, the mitotic events entry with HeLa cells [1] (25 and 50 μM, vs scrambled control siRNA) is recorded as “general decrease in mitotic events”. Besides, the failure in cytokinesis result in the data set on HeLa cells [1] (GKI-1 treated cells compared with GWL depletion) is “only rarely observed”. In the data set with HeLa cells [1] (blue to green spectrum, live cell imaging), the “sensitivity of treated cells to fluorescent light” value is “highly sensitive”. Moreover, the mitotic progression result with HeLa cells [1] (relative to SCR-treated cells) is recorded as “significant delay in mitotic progression”. In addition, the “off-target interactions in kinase panel” value in data set [2] was “several off-target interactions”. The “reduction in p-ENSA levels compared to control” value in the data set with HeLa cells [3] (25 μM, nocodazole-arrested HeLa cells) was found to be 2 fold. The p-ENSA signal result in the data set with HeLa cells [3] (50 μM, nocodazole-arrested HeLa cells) was “levels comparable to siGWL treated cells”. For the same molecule, the “levels of p-ENSA by immunofluorescence” value in the data set with HeLa cells [3] (co-incubation with nocodazole, 25 and 50 μM) is reported as “dose-dependent decrease”.
